According to ChEMBL document CHEMBL5303304, “EUbOPEN Chemogenomics Library - IncuCyte” (2023):

Experiments:
Format in all cases: toxicity, cell-based
HEK-293T = assay: Incucyte cell viability with HEK293T; settings: human, 10 µM, compound concentration 10 uM
Fibroblast = assay: Incucyte cell viability with human fibroblast; settings: 10 µM, compound concentration 10 uM
U2OS = assay: Incucyte cell viability with U2OS; settings: human, 10 µM, compound concentration 10 uM
Also: unitless GR value; below 1 slowed growth and below 0 cell loss.

SMILES	Growth Rate (HEK-293T; 0 h, replicate number 2)	Growth Rate (HEK-293T; 6 h, replicate number 1)	Growth Rate (HEK-293T; 18 h, replicate number 1)	Growth Rate (HEK-293T; 24 h, replicate number 1)	Growth Rate (HEK-293T; 24 h, replicate number 2)	Growth Rate (Fibroblast; 0 h, replicate number 1)	Growth Rate (Fibroblast; 12 h, replicate number 2)	Growth Rate (U2OS; 6 h, replicate number 2)	Growth Rate (U2OS; 12 h, replicate number 1)	Growth Rate (U2OS; 12 h, replicate number 2)	Growth Rate (U2OS; 18 h, replicate number 1)	Growth Rate (U2OS; 18 h, replicate number 2)	Growth Rate (U2OS; 24 h, replicate number 1)	Growth Rate (U2OS; 24 h, replicate number 2)	Growth Rate (HEK-293T; 12 h, replicate number 2)	Growth Rate (HEK-293T; 18 h, replicate number 2)	Growth Rate (Fibroblast; 24 h, replicate number 1)	Growth Rate (Fibroblast; 6 h, replicate number 2)	Growth Rate (Fibroblast; 18 h, replicate number 2)	Growth Rate (Fibroblast; 24 h, replicate number 2)	other results
Cc1cc(OC2CCS(=O)(=O)CC2)cc(C)c1-c1cccc(COc2ccc(CCC(=O)O)c(F)c2)c1	0.14	0.99	0.99	0.94	0.96	-0.63	0.88	0.78	0.88	0.91	0.96	0.99	0.92	0.87							Growth Rate (Fibroblast; 0 h, replicate number 2): 0; Growth Rate (Fibroblast; 12 h, replicate number 1): 0.64; Growth Rate (Fibroblast; 18 h, replicate number 1): 0.84
COc1ccc(CC[C@@H](OC(=O)[C@@H]2CCCCN2C(=O)[C@H](c2cc(OC)c(OC)c(OC)c2)C2CCCCC2)c2cccc(OCCN3CCOCC3)c2)cc1OC	-0.44		0.94	0.27	0.24	-1	0.99	0.91		0.8		0.78		0.73	0.38	0.26	0.97				Growth Rate (U2OS; 0 h, replicate number 1): -1; Growth Rate (U2OS; 0 h, replicate number 2): -0.99
CC(C)c1cnc(NC(=O)Cc2ccccc2)s1	1	0.76	0.8	0.73	0.69	-0.99			0.87	0.72	0.77	0.97	0.89	0.77	0.69	0.68	0.92	0.95	1	0.99	Growth Rate (HEK-293T; 6 h, replicate number 2): 0.51; Growth Rate (HEK-293T; 12 h, replicate number 1): 0.86; Growth Rate (U2OS; 0 h, replicate number 2): 0.72; Growth Rate (U2OS; 6 h, replicate number 1): 0.54
COc1c(-c2cn(C3CCC(=O)NC3=O)nn2)csc1C(=O)N1CCCC1 (stereo not drawn)	0.78	0.29	0.73	0.9	1	-1			0.85		0.92				0.89	0.9		0.73	0.92	0.97	Growth Rate (HEK-293T; 6 h, replicate number 2): 0.71; Growth Rate (HEK-293T; 12 h, replicate number 1): 0.77; Growth Rate (U2OS; 6 h, replicate number 1): 0.89
Cc1cn([C@@H](C)CC#N)c(=O)c2cc(Cn3nc(C(F)F)cc3Cl)nn12	0.77	0.53	0.89	0.92	0.81		0.66		0.51	0.71	0.6	0.88	0.73	0.78	0.81	0.77	0.85	0.71	0.99		Growth Rate (HEK-293T; 6 h, replicate number 2): 0.84; Growth Rate (HEK-293T; 12 h, replicate number 1): 0.72; Growth Rate (U2OS; 6 h, replicate number 1): 0.19
Cc1cc(OC2CCS(=O)(=O)CC2)cc(C)c1-c1cccc(COc2ccc(C(=O)O)c(F)c2)c1	0.65		0.96	0.9	0.84	-0.85	0.57	0.65	0.61	0.49	0.85	0.77	0.98	0.75	0.96	0.88				0.92	Growth Rate (Fibroblast; 6 h, replicate number 1): 0.86; Growth Rate (U2OS; 0 h, replicate number 2): 0.93; Growth Rate (U2OS; 6 h, replicate number 1): 0.56
COc1ccc(CC[C@@H](OC(=O)[C@H]2CCCCN2C(=O)[C@@H](c2cc(OC)c(OC)c(OC)c2)C2CCCCC2)c2cccc(OCCN3CCOCC3)c2)cc1OC	-0.05			0.74	0.49	-0.89		-0.94			0.98	0.99		0.87	0.72	0.52	0.99				Growth Rate (U2OS; 0 h, replicate number 2): -1
N#Cc1ccc(COc2ccc(Br)cc2CNCCO)cn1.O=CO	0.83		1				0.87		1									0.73	0.6	0.89	Growth Rate (Fibroblast; 12 h, replicate number 1): 0.85
COc1cc(-c2cc3ncccc3c(OC[C@H]3CNC(=O)C3)n2)cc(OC)c1OC1CCOCC1.O=C(O)C(F)(F)F	0.5	0.2	0.25	0.33	0.49	0.4	0.78	0.88	0.72	0.93	0.76	0.85	0.68	0.75	0.16	0.34		0.67	0.92	0.94	Growth Rate (HEK-293T; 6 h, replicate number 2): -0.14; Growth Rate (HEK-293T; 12 h, replicate number 1): 0.17; Growth Rate (Fibroblast; 6 h, replicate number 1): 0.72; Growth Rate (Fibroblast; 18 h, replicate number 1): 1; Growth Rate (U2OS; 0 h, replicate number 1): -0.63
Clc1cccc(Nc2nccc(NCCCN3CCOCC3)n2)c1	0.13	0.27	0.37	0.38	0.69	-0.99	0.39	0.73		0.73		0.82		0.7		0.82	0.48	0.14	0.57	0.53	Growth Rate (HEK-293T; 12 h, replicate number 1): 0.34; Growth Rate (Fibroblast; 0 h, replicate number 2): -0.07; Growth Rate (Fibroblast; 6 h, replicate number 1): 0.51; Growth Rate (Fibroblast; 12 h, replicate number 1): 0.59; Growth Rate (Fibroblast; 18 h, replicate number 1): 0.6; Growth Rate (U2OS; 0 h, replicate number 1): -0.75
COc1ccc(C(F)(F)F)cc1NC(=O)Nc1ccc(Oc2cc(C)nc(N)n2)c2ccccc12	-0.09	0.58	0.55	0.6	0.81	-1	0.87								0.92	0.87		0.32	0.85	0.89	Growth Rate (HEK-293T; 12 h, replicate number 1): 0.67; Growth Rate (Fibroblast; 0 h, replicate number 2): -0.09; Growth Rate (U2OS; 0 h, replicate number 1): -1
CN(C)[C@H]1CC[C@H](Nc2ncc3ncnc(Nc4ccc(F)c(Cl)c4)c3n2)CC1	-1	-0.21	0.12	0.23			-0.1	0.45	0.48	0.5	0.38	0.48	0.45	0.47			0.14	0.19	-0.19	-0.13	Growth Rate (HEK-293T; 12 h, replicate number 1): -0.11; Growth Rate (Fibroblast; 0 h, replicate number 2): -1; Growth Rate (Fibroblast; 6 h, replicate number 1): 0.74; Growth Rate (Fibroblast; 12 h, replicate number 1): 0.23; Growth Rate (Fibroblast; 18 h, replicate number 1): 0.14; Growth Rate (U2OS; 0 h, replicate number 1): -1; Growth Rate (U2OS; 0 h, replicate number 2): 0.58
CCc1ncnc(N2CCN(C(C)=O)CC2)c1C#Cc1ccc(N)nc1.Cl.Cl	-0.97	-0.05	0.05	0.01	0.02		0.76		0.73	0.99	0.73	0.8	0.7	0.68	-0.05	0.01	0.61	0.3	0.52	0.53	Growth Rate (HEK-293T; 6 h, replicate number 2): -0.04; Growth Rate (HEK-293T; 12 h, replicate number 1): 0.06; Growth Rate (Fibroblast; 12 h, replicate number 1): 0.68; Growth Rate (Fibroblast; 18 h, replicate number 1): 0.66; Growth Rate (U2OS; 0 h, replicate number 1): -0.47; Growth Rate (U2OS; 6 h, replicate number 1): 0.86
Cn1c(Nc2c(Cl)cccc2Cl)nc2ccc3nc[nH]c(=O)c3c21	-1	0.08					0.35	0.19	0.97	0.74	0.86	0.83	0.98	0.85			0.51	0.1	0.42	0.33	Growth Rate (HEK-293T; 6 h, replicate number 2): 0.03; Growth Rate (Fibroblast; 6 h, replicate number 1): 0.64; Growth Rate (Fibroblast; 12 h, replicate number 1): 0.65; Growth Rate (Fibroblast; 18 h, replicate number 1): 0.71; Growth Rate (U2OS; 0 h, replicate number 1): -0.24; Growth Rate (U2OS; 0 h, replicate number 2): 0.87; Growth Rate (U2OS; 6 h, replicate number 1): 0.95
